Values joined by “and” are separate entries in the source; they are usually repeats but may differ in a detail not shown here. Equal values may be shown once. Read-outs that look alike come from different tables or passages of the source. Non-standard residues stand in square brackets, D forms with d. Residues, ends and D or L forms follow the SMILES beside them. *: point of attachment. NH(3,5-(CF3)2-benzyl) = FC(F)(F)c1cc(CN*)cc(C(F)(F)F)c1; NMePhe(4-F) = CN[C@@H](Cc1ccc(F)cc1)C(=O)O; Phe(4-F) = N[C@@H](Cc1ccc(F)cc1)C(=O)O; Dmt = Cc1cc(O)cc(C)c1C[C@H](N)C(=O)O; NMeF = CN[C@@H](Cc1ccccc1)C(=O)O
Experiments:
MOR [1] = assay: Radioligand binding assay at μ opioid receptor; conditions: for Log[IC50±] (μ): log IC50 ± error; for Ki^μ/Ki^δ: ratio of binding affinities MOR/DOR
Protocol: (§1) Binding affinities of these ligands were measured on radioligand binding assays. […] ([43]).

DOR [2] = target: DOR (Homo sapiens, UniProt P41143); assay: Radioligand binding assay at δ opioid receptor; conditions: for Ki: Ki^δ (nM)
Protocol: as §1

hNK1 = target: T1, hNK1 (Homo sapiens, UniProt P25103); assay: hNK1/CHO cell membrane radioligand binding assay ([3H]SP); conditions: for Ki: hNK1/CHO membranes, [3H]SP; for Ki^hNK1/Ki^rNK1: ratio human/rat NK1
T1 construct: expressed in transfected cells; host or cells: CHO

rNK1 = rNK1 (Rattus norvegicus, UniProt P14600); assay: Radioligand binding assay at rat NK1 receptor
Protocol: as §1

MOR [3] = assay: Guinea pig isolated ileum (GPI) functional assay; format: cell-based
DOR [4] = target: T2, DOR (Mus musculus, UniProt P32300); assay: Mouse isolated vas deferens (MVD) functional assay; format: cell-based
T2 construct: Male ICR mice under CO2 anesthesia were sacrificed by cervical dislocation and the vasa differentia removed; from tissue; host or cells: mouse vas deferens (ICR mice)

NK1R = target: T3, NK1R (Cavia porcellus, UniProt P30547); assay: GPI/LMMP functional assay at NK1R (agonist and antagonist testing); format: cell-based, guinea pig; conditions: for GPI/LMMP (NK1R) Agonist: agonist activity at the concentration in the cell
T3 construct: The longitudinal muscle with myenteric plexus (LMMP) was carefully separated from the circular muscle; from tissue; host or cells: guinea pig ileum longitudinal muscle with myenteric plexus

[5] = head of Table IX, read-out: GPI (MOR) ID50
[6] = MVD (DOR) IC50 (nM), agonist activity, electrically stimulated tissue
[7] = GPI/LMMP (NK1R) Ke (nM) ± S.E.M., antagonist activity
[8] = agonist activity, electrically stimulated tissue, read-out: GPI (MOR) IC50

T3 sequence (P30547 whole entry): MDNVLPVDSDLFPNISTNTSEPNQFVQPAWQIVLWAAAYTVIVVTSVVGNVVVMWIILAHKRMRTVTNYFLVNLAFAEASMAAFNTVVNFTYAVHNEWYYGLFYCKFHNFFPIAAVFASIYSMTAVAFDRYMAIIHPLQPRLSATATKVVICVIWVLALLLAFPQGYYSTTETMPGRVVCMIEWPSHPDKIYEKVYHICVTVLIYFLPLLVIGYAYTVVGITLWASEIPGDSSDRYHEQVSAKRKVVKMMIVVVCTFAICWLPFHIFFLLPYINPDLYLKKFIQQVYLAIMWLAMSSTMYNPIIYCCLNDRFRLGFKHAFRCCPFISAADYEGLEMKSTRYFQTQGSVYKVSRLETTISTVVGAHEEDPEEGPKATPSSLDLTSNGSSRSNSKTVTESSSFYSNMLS
Chain of DOR (Homo sapiens, UniProt P41143) (P41143 whole entry): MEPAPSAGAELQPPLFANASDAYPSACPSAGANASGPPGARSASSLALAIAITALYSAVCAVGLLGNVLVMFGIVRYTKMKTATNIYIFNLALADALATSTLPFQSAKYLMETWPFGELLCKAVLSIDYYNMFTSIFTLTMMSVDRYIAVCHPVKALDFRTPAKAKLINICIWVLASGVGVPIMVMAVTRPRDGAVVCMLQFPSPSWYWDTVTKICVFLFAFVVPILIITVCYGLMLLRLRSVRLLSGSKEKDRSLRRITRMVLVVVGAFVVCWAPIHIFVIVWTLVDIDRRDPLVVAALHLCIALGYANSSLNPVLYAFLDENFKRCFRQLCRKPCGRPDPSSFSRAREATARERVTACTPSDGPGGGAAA
T2 sequence (P32300 whole entry): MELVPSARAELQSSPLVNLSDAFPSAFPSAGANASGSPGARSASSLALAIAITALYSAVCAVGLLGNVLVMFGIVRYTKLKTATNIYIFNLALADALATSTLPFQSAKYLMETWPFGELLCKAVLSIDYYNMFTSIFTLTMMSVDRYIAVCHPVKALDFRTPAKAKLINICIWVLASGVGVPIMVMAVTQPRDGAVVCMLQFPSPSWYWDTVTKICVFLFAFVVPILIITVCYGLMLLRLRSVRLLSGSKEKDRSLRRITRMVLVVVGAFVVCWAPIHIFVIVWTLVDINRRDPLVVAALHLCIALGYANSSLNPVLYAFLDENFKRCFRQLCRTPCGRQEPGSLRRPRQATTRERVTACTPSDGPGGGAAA
Chain of rNK1 (P14600 whole entry): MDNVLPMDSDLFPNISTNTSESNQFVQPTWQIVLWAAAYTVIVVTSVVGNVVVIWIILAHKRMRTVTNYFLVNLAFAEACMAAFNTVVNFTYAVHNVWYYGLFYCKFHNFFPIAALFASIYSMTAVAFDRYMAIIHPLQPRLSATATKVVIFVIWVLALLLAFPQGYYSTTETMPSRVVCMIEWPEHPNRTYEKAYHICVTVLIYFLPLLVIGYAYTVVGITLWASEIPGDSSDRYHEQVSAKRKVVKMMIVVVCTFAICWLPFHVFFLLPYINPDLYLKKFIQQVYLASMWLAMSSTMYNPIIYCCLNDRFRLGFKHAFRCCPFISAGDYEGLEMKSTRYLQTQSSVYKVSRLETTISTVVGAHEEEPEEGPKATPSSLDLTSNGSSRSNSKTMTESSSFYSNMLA
T1 sequence (P25103 whole entry): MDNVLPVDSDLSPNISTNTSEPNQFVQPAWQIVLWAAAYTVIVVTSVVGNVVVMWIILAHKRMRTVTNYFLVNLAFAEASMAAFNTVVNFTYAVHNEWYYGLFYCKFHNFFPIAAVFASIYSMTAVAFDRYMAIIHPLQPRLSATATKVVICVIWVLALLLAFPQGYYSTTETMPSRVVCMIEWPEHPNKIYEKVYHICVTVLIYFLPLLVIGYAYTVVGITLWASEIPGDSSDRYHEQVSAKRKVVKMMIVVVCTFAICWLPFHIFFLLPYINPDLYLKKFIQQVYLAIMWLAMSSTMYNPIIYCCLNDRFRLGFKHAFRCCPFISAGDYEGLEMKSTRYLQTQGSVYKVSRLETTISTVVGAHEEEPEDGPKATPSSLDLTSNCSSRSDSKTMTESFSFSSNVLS

SMILES	Ki (MOR [1])	Log[IC50±] (μ) (MOR [1])	Ki^μ/Ki^δ (MOR [1])	IC50 (DOR [2])	Ki (DOR [2])	Ki (hNK1; Ki^hNK1 (nM))	Ki^hNK1/Ki^rNK1 (hNK1)	Ki (rNK1; Ki^rNK1 (nM))	GPI/MVD IC50 ratio (MOR [3])	IC50 (MOR [3]; [5])	IC50 (DOR [4]; [6])	Kb (NK1R; [7])	GPI/LMMP (NK1R) Agonist (NK1R)	binding selectivity for MOR over DOR (MOR [1])	IC50 (MOR [3]; [8])	IC50 (DOR [4])	higher agonist activity at DOR compared to MOR (functional assays) (DOR [4])	Kb (NK1R)	Ki (hNK1; read-out: Ki^hNK1)	Ki (rNK1; read-out: Ki^rNK1)
CC(C)C[C@H](NC(=O)[C@@H]1CCCN1C(=O)CNC(=O)[C@H](CO)NC(=O)[C@H](Cc1ccccc1)N(C)C(=O)CNC(=O)[C@@H](C)NC(=O)[C@@H](N)Cc1ccc(O)cc1)C(=O)N[C@@H](Cc1c[nH]c2ccccc12)C(=O)NCc1cc(C(F)(F)F)cc(C(F)(F)F)c1 [AKG-CRA-136] (H-Y[dA]G[NMeF]SGPLW-{NH(3,5-(CF3)2-benzyl)})	3 nM	−8.07 ± 0.18	1/9	85.1 nM	38 nM	9.23 ± 1.38 nM	1/17	156 ± 2.33 nM	5/1	108 ± 44.8 nM	22.6 ± 2.07 nM	27.6 ± 2.9 nM	None at 100 nM	–	–	–	–	–	–	–
CC(C)C[C@H](NC(=O)[C@@H]1CCCN1C(=O)c1ccc(CNC(=O)[C@H](Cc2ccccc2)N(C)C(=O)CNC(=O)[C@@H](C)NC(=O)[C@@H](N)Cc2ccc(O)cc2)cc1)C(=O)N[C@@H](Cc1c[nH]c2ccccc12)C(=O)NCc1cc(C(F)(F)F)cc(C(F)(F)F)c1 [AKG125, H-Tyr-D-Ala-Gly-NMePhe-4-Amb-Pro-Leu-Trp-NH-Bn(3′,5′-(CF3)2)]	5 nM	−7.92 ± 0.11	–	263 nM	–	2.3 nM	1/13	30 nM	10/1	–	–	–	None at 100 nM	23 times	470 nM and 471 nM	46.3 ± 13.4 nM	10 times	8.36 ± 4.12 nM	–	–
CC(C)C[C@H](NC(=O)[C@@H]1CCCN1C(=O)CNC(=O)[C@H](CCC(N)=O)NC(=O)[C@H](Cc1ccccc1)N(C)C(=O)CNC(=O)[C@@H](C)NC(=O)[C@@H](N)Cc1ccc(O)cc1)C(=O)N[C@@H](Cc1c[nH]c2ccccc12)C(=O)NCc1cc(C(F)(F)F)cc(C(F)(F)F)c1 [AKG-SK-145] (H-Y[dA]G[NMeF]QGPLW-{NH(3,5-(CF3)2-benzyl)})	2 nM	−8.43 ± 0.08	1/3	14.5 nM	6 nM	7.5 nM	1/16	120 nM and 125 nM	–	–	–	–	–	–	–	–	–	–	–	–
Cc1cc(O)cc(C)c1C[C@H](N)C(=O)N[C@H](C)C(=O)NCC(=O)N(C)[C@@H](Cc1ccccc1)C(=O)N[C@@H](CO)C(=O)N1CCC[C@H]1C(=O)N[C@@H](CC(C)C)C(=O)N[C@@H](Cc1c[nH]c2ccccc12)C(=O)NCc1cc(C(F)(F)F)cc(C(F)(F)F)c1 [AKG132] (H-[Dmt][dA]G[NMeF]SPLW-{NH(3,5-(CF3)2-benzyl)})	0.4 nM	−9.03 ± 0.06	1/5	5.25 nM	2 nM	5.6 nM and 5.61 nM	1/6	36 nM	–	42.6 ± 6 nM	7.66 ± 2.03 nM	19.8 ± 2.9 nM	None at 30 nM	–	43 nM	–	–	–	–	–
CC(C)C[C@H](NC(=O)[C@@H]1CCCN1C(=O)c1ccc(NC(=O)[C@H](Cc2ccccc2)N(C)C(=O)CNC(=O)[C@@H](C)NC(=O)[C@@H](N)Cc2ccc(O)cc2)cc1)C(=O)N[C@@H](Cc1c[nH]c2ccccc12)C(=O)NCc1cc(C(F)(F)F)cc(C(F)(F)F)c1 [AKG176, H-Tyr-D-Ala-Gly-NMePhe-4-Abz-Pro-Leu-Trp-NH-Bn(3′,5′-(CF3)2)]	1 nM	−8.69 ± 0.24	1/82	182 nM	70 nM	5.3 nM	1/19	74 nM	2/1	–	–	–	None at 300 nM	–	40.8 ± 8 nM	22.8 ± 5.53 nM	–	117 ± 31.4 nM	–	–
CC(C)C[C@H](NC(=O)[C@@H]1CCCN1C(=O)[C@H](CCC(N)=O)NC(=O)[C@H](Cc1ccccc1)NC(=O)CNC(=O)[C@@H](C)NC(=O)[C@@H](N)Cc1ccc(O)cc1)C(=O)N[C@@H](Cc1c[nH]c2ccccc12)C(=O)NCc1cc(C(F)(F)F)cc(C(F)(F)F)c1 [AKG105]	–	−7.06 ± 0.18	–	20.4 nM	9 nM	1 nM	–	12 nM	–	–	–	–	–	–	–	–	–	–	–	–
CC(C)C[C@H](NC(=O)[C@@H]1CCCN1C(=O)CNC(=O)[C@H](Cc1ccccc1)N(C)C(=O)CNC(=O)[C@@H](C)NC(=O)[C@@H](N)Cc1ccc(O)cc1)C(=O)N[C@@H](Cc1c[nH]c2ccccc12)C(=O)NCc1cc(C(F)(F)F)cc(C(F)(F)F)c1 [AKG113, H-Tyr-D-Ala-Gly-NMePhe-Gly-Pro-Leu-Trp-NH-Bn(3′,5′-(CF3)2)] (H-Y[dA]G[NMeF]GPLW-{NH(3,5-(CF3)2-benzyl)})	3 nM	−8.23 ± 0.03	1/15	100 nM	46 nM	–	1/4	60 nM	2/1	–	38.7 ± 9.69 nM	14.9 ± 2.9 nM	None at 100 nM	15 times	79.2 nM	–	–	–	–	–
CC(C)C[C@H](NC(=O)[C@@H]1CCCN1C(=O)[C@@H](CO)NC(=O)[C@H](Cc1ccccc1)NC(=O)CNC(=O)[C@@H](C)NC(=O)[C@@H](N)Cc1ccc(O)cc1)C(=O)N[C@@H](Cc1c[nH]c2ccccc12)C(=O)NCc1cc(C(F)(F)F)cc(C(F)(F)F)c1 [AKG101]	200 nM	−6.35 ± 0.26	6/1	74.1 nM	–	3 nM	1/39	110 nM	–	–	6.7 nM and 6.72 nM	28 ± 11.8 nM	None at 100 nM	–	–	–	–	–	–	–
CC(C)C[C@H](NC(=O)[C@@H]1CCCN1C(=O)CNC(=O)[C@H](Cc1ccc(F)cc1)NC(=O)CNC(=O)[C@@H](C)NC(=O)[C@@H](N)Cc1ccc(O)cc1)C(=O)N[C@@H](Cc1c[nH]c2ccccc12)C(=O)NCc1cc(C(F)(F)F)cc(C(F)(F)F)c1 [AKG130, H-Tyr-D-Ala-Gly-Phe(4-F)-Gly-Pro-Leu-Trp-NH-Bn(3′,5′-(CF3)2)] (H-Y[dA]G[Phe(4-F)]GPLW-{NH(3,5-(CF3)2-benzyl)})	9 nM	−7.69 ± 0.06	2/1	11 nM	5 nM	1.54 nM	1/47	72 nM	–	–	11.9 ± 1.56 nM	11 nM and 10.6 nM	None at 300 nM	–	340 nM and 339 nM	–	–	–	–	–
CC(C)C[C@H](NC(=O)[C@@H]1CCCN1C(=O)[C@H](Cc1ccccc1)NC(=O)CNC(=O)[C@@H](C)NC(=O)[C@@H](N)Cc1ccc(O)cc1)C(=O)N[C@@H](Cc1c[nH]c2ccccc12)C(=O)NCc1cc(C(F)(F)F)cc(C(F)(F)F)c1 [TY012, reference compound]	–	−7.7 ± 0.21	–	–	–	–	–	–	–	–	–	–	–	–	–	–	–	–	0.61 nM	33 nM
CC(C)C[C@H](NC(=O)[C@@H]1CCCN1C(=O)[C@H](CO)NC(=O)[C@H](Cc1ccc(F)cc1)N(C)C(=O)CNC(=O)[C@@H](C)NC(=O)[C@@H](N)Cc1ccc(O)cc1)C(=O)N[C@@H](Cc1c[nH]c2ccccc12)C(=O)NCc1cc(C(F)(F)F)cc(C(F)(F)F)c1 [AKG134] (H-Y[dA]G[NMePhe(4-F)]SPLW-{NH(3,5-(CF3)2-benzyl)})	2 nM	−8.27 ± 0.11	1/4	14.5 nM	7 nM	7.95 ± 0.87 nM	1/6	50.2 ± 16.9 nM	21/1	184 ± 30.9 nM	8.94 ± 0.795 nM	1.86 ± 0.43 nM	None at 30 nM	–	–	–	–	–	–	–
Cc1cc(O)cc(C)c1C[C@H](N)C(=O)N[C@H](C)C(=O)NCC(=O)N(C)[C@@H](Cc1ccccc1)C(=O)N[C@@H](CCC(N)=O)C(=O)NCC(=O)N1CCC[C@H]1C(=O)N[C@@H](CC(C)C)C(=O)N[C@@H](Cc1c[nH]c2ccccc12)C(=O)NCc1cc(C(F)(F)F)cc(C(F)(F)F)c1 [AKG-SK-146] (H-[Dmt][dA]G[NMeF]QGPLW-{NH(3,5-(CF3)2-benzyl)}; N-terminus assumed)	0.6 nM	−8.94 ± 0.17	1/1	1.41 nM	0.6 nM	6.37 ± 1.54 nM	1/15	78.6 ± 9.8 nM	–	–	–	–	–	–	–	–	–	–	–	–
CSCC[C@H](NC(=O)[C@H](Cc1ccccc1)NC(=O)CNC(=O)[C@@H](C)NC(=O)[C@@H](N)Cc1ccc(O)cc1)C(=O)N1CCC[C@H]1C(=O)N[C@@H](CC(C)C)C(=O)N[C@@H](Cc1c[nH]c2ccccc12)C(=O)NCc1cc(C(F)(F)F)cc(C(F)(F)F)c1 [TY027, H-Tyr-D-Ala-Gly-Phe-Met-Pro-Leu-Trp-NH-Bn(3′,5′-(CF3)2), reference compound]	–	–	–	–	–	1.5 nM and 2 nM	–	10 nM and 14 nM	–	–	–	–	–	–	–	–	–	–	–	–
CC(C)C[C@H](NC(=O)[C@@H]1CCCN1C(=O)[C@H](CC(N)=O)NC(=O)[C@H](Cc1ccccc1)NC(=O)CNC(=O)[C@@H](C)NC(=O)[C@@H](N)Cc1ccc(O)cc1)C(=O)N[C@@H](Cc1c[nH]c2ccccc12)C(=O)NCc1cc(C(F)(F)F)cc(C(F)(F)F)c1 [AKG104]	–	−6.93 ± 0.05	3/1	37.2 nM	17 nM	–	–	20 nM	–	–	–	–	–	–	–	–	–	–	–	–

— patent publication US11141452B2, “Bifunctional compounds for relief of pain comprising an opioid receptor agonist moiety and a NK1 receptor antagonist moiety and methods for treating pain” (THE ARIZONA BOARD OF REGENTS ON BEHALF OF THE UNIVERSITY OF …, priority 2014, dated 2021)
